The text below walks through data of BindingDB's records for doi:10.1021/acs.jmedchem.8b00164 (Athenex, 2018).

As usually defined, the pIC50 is the IC50 on a negative log10 scale, so that one unit is a factor of ten.

The structures appear in SMILES notation. pIC50: −log10 of the molar value.

Assay [1] in a line: Inhibition of human c-SRC expressed in mouse NIH/3T3 cells assessed as inhibition of cell growth in presence of 1.5% FCS by BrdU incorporation assay.
The nature of assay [2]: Inhibition of human c-SRC expressed in mouse NIH/3T3 cells assessed as inhibition of cell growth in presence of 0.5% FCS.

In the case of `O=C(Cc1ccc(-c2ccccc2)cn1)NCc1cccc(F)c1`, the negative logarithm of the IC50 (pIC50) in assay [1] is 6.57.

Regarding `O=C(Cc1ccc(-c2ccc(OCCN3CCOCC3)cc2)cn1)NCc1cccc(F)c1`, the pIC50 in assay [1] was 6.93.

`O=C(Cc1ccc(-c2ccccc2)cc1)NCc1cccc(F)c1`: the pIC50 in assay [1] is 6.46.

`O=C(Cc1ccc(-c2ccc(OCCN3CCOCC3)cc2)cn1)NCc1ccccc1` [N-benzyl-2-(5-(4-(2-morpholinoethoxy)phenyl)pyridin-2-yl)acetamide]: the pIC50 in assay [2] was 8.19; in assay [1], 7.89.
